Tests used:
ZEAMX [1] = assay: Pre-emergence effects on crop plants (Table D1); assay type: in vivo, Zea mays; details: crop plant; application rate 80 g/ha; visual grading after ca. 3 weeks
SETVI [2] = assay: Herbicidal pre-emergence action (Table A5); assay type: in vivo, Setaria viridis; details: visual grading after ca. 3 weeks
Method in brief: (§1)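 Double sowing per pot (1 monocot + 1 dicot weed species), sandy loam substrate, seeds covered with soil.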

VERPE [3] = assay: Herbicidal pre-emergence action (Table A11); assay type: in vivo, Veronica persica; details: application rate 1280 g/ha; visual grading after ca. 3 weeks
Method in brief: as §1

VERPE [4] = assay: Herbicidal pre-emergence action, section C (Table C11); assay type: in vivo, Veronica persica; details: visual grading after ca. 3 weeks
GLXMA [5] = assay: Post-emergence effects on crop plants (Table F4); assay type: in vivo, Glycine max; details: crop plant GLXMA
Text: (§2) 2 to 3 weeks after sowing, the test plants were sprayed in the single-leaf stage.

ZEAMX [6] = assay: Post-emergence effects on crop plants (Table F1); assay type: in vivo, Zea mays; details: application rate 320 g/ha, crop plant ZEAMX
Text: as §2

MATIN [7] = assay: Herbicidal post-emergence action (Table B6); assay type: in vivo, Matricaria inodora; details: application rate 1280 g/ha; rated visually after about 3 weeks
Method in brief: (§3)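 Weed seeds sown in sandy loam in pots (one mono- or dicot species per pot), grown in greenhouse; plants treated post-emergence at one-leaf stage, 2–3 weeks after sowing. After ~3 weeks, damage scored visually vs untreated controls (100% = plants dead, 0% = like controls).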

ECHCG [8] = assay: Herbicidal post-emergence action (Table B3); assay type: in vivo, Echinochloa crus-galli; details: rated visually after about 3 weeks
Method in brief: as §3

SETVI [9] = assay: Herbicidal post-emergence action (Table B8); assay type: in vivo, Setaria viridis
Method in brief: as §3

ALOMY [10] = assay: Herbicidal pre-emergence action, section C (Table C2); assay type: in vivo, Alopecurus myosuroides; details: visual grading after ca. 3 weeks
VERPE [11] = assay: Herbicidal post-emergence action, section E (Table E9); assay type: in vivo, Veronica persica; details: application rate 320 g/ha; assessed visually after ca. 3 weeks
Text: as §2

LOLRI [12] = assay: Herbicidal pre-emergence action, section C (Table C7); assay type: in vivo, Lolium rigidum; details: application rate 320 g/ha; visual grading after ca. 3 weeks
MATIN [13] = assay: Herbicidal pre-emergence action (Table A4); assay type: in vivo, Matricaria inodora; details: visual grading after ca. 3 weeks
Method in brief: as §1

ABUTH [14] = assay: Herbicidal post-emergence action (Table B1); assay type: in vivo, Abutilon theophrasti; details: treated at one-leaf stage, rated visually after about 3 weeks vs untreated controls (100% = plants have died, 0% = like control plants)
Method in brief: as §3

LOLRI [15] = assay: Herbicidal pre-emergence action (Table A3); assay type: in vivo, Lolium rigidum; details: application rate 320 g/ha; visual grading after ca. 3 weeks
Method in brief: as §1

VIOTR [16] = assay: Herbicidal pre-emergence action, section C (Table C12); assay type: in vivo, Viola tricolor; details: application rate 80 g/ha; visual grading after ca. 3 weeks
STEME = assay: Herbicidal pre-emergence action (Table A6); assay type: in vivo, Stellaria media; details: application rate 320 g/ha; visual grading after ca. 3 weeks
Method in brief: as §1

ECHCG [17] = assay: Herbicidal pre-emergence action (Table A2); assay type: in vivo, Echinochloa crus-galli; details: application rate 320 g/ha; visual grading after ca. 3 weeks
Method in brief: as §1

MATIN [18] = assay: Herbicidal pre-emergence action, section C (Table C8); assay type: in vivo, Matricaria inodora; details: application rate 320 g/ha; visual grading after ca. 3 weeks
DIGSA [19] = assay: Herbicidal pre-emergence action, section C (Table C5); assay type: in vivo, Digitaria sanguinalis; details: application rate 80 g/ha; visual grading after ca. 3 weeks
VIOTR [20] = assay: Herbicidal post-emergence action, section E (Table E10); assay type: in vivo, Viola tricolor; details: application rate 320 g/ha; assessed visually after ca. 3 weeks
Text: as §2

DIGSA [21] = assay: Herbicidal pre-emergence action (Table A12); assay type: in vivo, Digitaria sanguinalis; details: application rate 320 g/ha; visual grading after ca. 3 weeks
Method in brief: as §1

LOLRI [22] = assay: Herbicidal post-emergence action (Table B5); assay type: in vivo, Lolium rigidum; details: application rate 1280 g/ha; rated visually after about 3 weeks
Method in brief: as §3

KCHSC [23] = assay: Herbicidal pre-emergence action (Table A10); assay type: in vivo, Kochia scoparia; details: application rate 320 g/ha; visual grading after ca. 3 weeks
Method in brief: as §1

ALOMY [24] = assay: Herbicidal pre-emergence action (Table A9); assay type: in vivo, Alopecurus myosuroides; details: application rate 1280 g/ha; visual grading after ca. 3 weeks
Method in brief: as §1

ABUTH [25] = assay: Herbicidal pre-emergence action (Table A1); assay type: in vivo, Abutilon theophrasti; details: visual grading after ca. 3 weeks vs untreated controls (100% = plants have died off, 0% = as control plants)
Method in brief: as §1

TRZAS [26] = assay: Pre-emergence effects on crop plants (Table D2); assay type: in vivo, Triticum aestivum; details: crop plant; application rate 80 g/ha; visual grading after ca. 3 weeks
ORYZA [27] = assay: Pre-emergence effects on crop plants (Table D3); details: crop plant; application rate 80 g/ha; visual grading after ca. 3 weeks
TRZAS [28] = assay: Post-emergence effects on crop plants (Table F2); assay type: in vivo, Triticum aestivum; details: application rate 320 g/ha, crop plant TRZAS
Text: as §2

SETVI [29] = assay: Herbicidal pre-emergence action, section C (Table C10); assay type: in vivo, Setaria viridis; details: application rate 320 g/ha; visual grading after ca. 3 weeks
GLXMA [30] = assay: Pre-emergence effects on crop plants (Table D4); assay type: in vivo, Glycine max; details: crop plant; application rate 320 g/ha; visual grading after ca. 3 weeks
ABUTH [31] = assay: Herbicidal post-emergence action, section E (Table E1); assay type: in vivo, Abutilon theophrasti; details: application rate 320 g/ha; assessed visually after ca. 3 weeks
Text: as §2

ORYZA [32] = assay: Post-emergence effects on crop plants (Table F3); assay type: in vivo, Oryza sativa; details: application rate 320 g/ha, crop plant ORYZA
Text: as §2

POAAN [33] = assay: Herbicidal pre-emergence action (Table A7); assay type: in vivo, Poa annua; details: application rate 320 g/ha; visual grading after ca. 3 weeks
Method in brief: as §1

KCHSC [34] = assay: Herbicidal post-emergence action (Table B4); assay type: in vivo, Kochia scoparia; details: application rate 1280 g/ha; rated visually after about 3 weeks
Method in brief: as §3

POAAN [35] = assay: Herbicidal post-emergence action (Table B7); assay type: in vivo, Poa annua; details: application rate 1280 g/ha
Method in brief: as §3

AMARE [36] = assay: Herbicidal pre-emergence action, section C (Table C3); assay type: in vivo, Amaranthus retroflexus; details: application rate 320 g/ha; visual grading after ca. 3 weeks
Text: (§4) Seeds of mono- and dicotyledonous weed plants and crop plants were sown, in plastic or organic planting pots, in sandy loam and covered with soil. The compounds according to the invention, formulated in the form of wettable powders (WP) or as emulsifiable concentrates (EC), were applied to the surface of the covering soil as aqueous suspension or emulsion, with the addition of 0.5% of an additive, at an application rate of 600 1 of water/ha (converted). Following treatment, the pots were placed in a greenhouse and kept under optimum growth conditions for the test plants.

VERPE [37] = assay: Herbicidal post-emergence action (Table B10); assay type: in vivo, Veronica persica; details: application rate 1280 g/ha
Method in brief: as §3

POLCO = assay: Herbicidal pre-emergence action, section C (Table C9); assay type: in vivo, Polygonum convolvulus; details: application rate 80 g/ha; visual grading after ca. 3 weeks
AMARE [38] = assay: Herbicidal post-emergence action (Table B11); assay type: in vivo, Amaranthus retroflexus; details: application rate 1280 g/ha
Method in brief: as §3

DIGSA [39] = assay: Herbicidal post-emergence action (Table B12); assay type: in vivo, Digitaria sanguinalis; details: application rate 1280 g/ha
Experimental: Seeds of mono- and dicotyledonous weed plants were placed in plastic pots in sandy loam soil (doubly sown with in each case one species of mono- or dicotyledonous weed plants per pot), covered with soil and cultivated in a greenhouse under controlled growth conditions. 2 to 3 weeks after sowing, the test plants were treated at the one-leaf stage. […] After the test plants had been kept in the greenhouse under optimum growth conditions for about 3 weeks, the activity of the preparations was rated visually in comparison to untreated controls. For example, 100% activity = the plants have died, 0% activity = like control plants.

ABUTH [40] = assay: Herbicidal pre-emergence action, section C (Table C1); assay type: in vivo, Abutilon theophrasti; details: application rate 80 g/ha; visual grading after ca. 3 weeks
ECHCG [41] = assay: Herbicidal pre-emergence action, section C (Table C6); assay type: in vivo, Echinochloa crus-galli; details: application rate 80 g/ha; visual grading after ca. 3 weeks
Text: as §4

AMARE [42] = assay: Herbicidal pre-emergence action (Table A8); assay type: in vivo, Amaranthus retroflexus; details: application rate 320 g/ha; visual grading after ca. 3 weeks vs untreated controls (100% = plants have died off, 0% = as control plants)
Method in brief: as §1

| Structure (SMILES) | pre-emergence activity against ZEAMX (ZEAMX [1]) | pre-emergence activity against VERPE (VERPE [3]) | post-emergence activity against ZEAMX (ZEAMX [6]) | post-emergence activity against MATIN (MATIN [7]) | pre-emergence activity against LOLRI (LOLRI [12]) | pre-emergence activity against LOLRI (LOLRI [15]) | pre-emergence activity against VIOTR (VIOTR [16]) | pre-emergence activity against STEME (STEME) | pre-emergence activity against ECHCG (ECHCG [17]) | pre-emergence activity against MATIN (MATIN [18]) | pre-emergence activity against DIGSA (DIGSA [19]) | pre-emergence activity against DIGSA (DIGSA [21]) | pre-emergence activity against KCHSC (KCHSC [23]) | pre-emergence activity against ALOMY (ALOMY [24]) | pre-emergence activity against ORYZA (ORYZA [27]) | post-emergence activity against TRZAS (TRZAS [28]) | pre-emergence activity against SETVI (SETVI [29]) | post-emergence activity against ORYZA (ORYZA [32]) | pre-emergence activity against POAAN (POAAN [33]) | further results |
| --- | --- | --- | --- | --- | --- | --- | --- | --- | --- | --- | --- | --- | --- | --- | --- | --- | --- | --- | --- | --- |
| O=C1N(Cc2c(F)cccc2F)CCCC12CCN(Cc1c(F)cccc1F)C2=O (racemic) [I-037] | 0% | 90% | 0% | 90% | 100% | 100% | 90% | 90% | 100% | 80% | 100% | 100% | 90% | 90% | 0% | 0% | 100% | 0% | 100% | pre-emergence activity against SETVI (SETVI [2]; application rate 1280 g/ha): 100%; pre-emergence activity against VERPE (VERPE [4]; application rate 80 g/ha): 90%; post-emergence activity against GLXMA (GLXMA [5]; application rate 320 g/ha): 0%; post-emergence activity against ECHCG (ECHCG [8]; application rate 1280 g/ha): 90%; post-emergence activity against SETVI (SETVI [9]; application rate 1280 g/ha): 90%; pre-emergence activity against ALOMY (ALOMY [10]; application rate 320 g/ha): 100%; post-emergence activity against VERPE (VERPE [11]): 80%; pre-emergence activity against MATIN (MATIN [13]; application rate 1280 g/ha): 90%; post-emergence activity against ABUTH (ABUTH [14]; application rate 1280 g/ha): 90%; post-emergence activity against VIOTR (VIOTR [20]): 80%; post-emergence activity against LOLRI (LOLRI [22]): 90%; pre-emergence activity against ABUTH (ABUTH [25]; application rate 1280 g/ha): 100%; pre-emergence activity against TRZAS (TRZAS [26]): 0%; pre-emergence activity against GLXMA (GLXMA [30]): 20%; post-emergence activity against ABUTH (ABUTH [31]): 80% |
| O=C1N(Cc2ccccc2F)CCCC12CCN(Cc1cccc(F)c1F)C2=O (racemic) [I-016] | 0% | 90% | 0% | 90% | 100% | 100% | 90% | 90% | 100% | 90% | 100% | 100% | 90% | 90% | 0% | 0% | 100% | 0% | 100% | pre-emergence activity against SETVI (SETVI [2]; application rate 320 g/ha): 100%; post-emergence activity against KCHSC (KCHSC [34]): 90%; post-emergence activity against POAAN (POAAN [35]): 90%; pre-emergence activity against AMARE (AMARE [36]): 90%; pre-emergence activity against VERPE (VERPE [4]; application rate 320 g/ha): 90%; post-emergence activity against VERPE (VERPE [37]): 90%; post-emergence activity against GLXMA (GLXMA [5]; application rate 80 g/ha): 0%; post-emergence activity against ECHCG (ECHCG [8]; application rate 320 g/ha): 90%; post-emergence activity against SETVI (SETVI [9]; application rate 320 g/ha): 90%; pre-emergence activity against ALOMY (ALOMY [10]; application rate 80 g/ha): 90%; pre-emergence activity against POLCO (POLCO): 90%; pre-emergence activity against MATIN (MATIN [13]; application rate 320 g/ha): 90%; post-emergence activity against AMARE (AMARE [38]): 90%; post-emergence activity against ABUTH (ABUTH [14]; application rate 320 g/ha): 90%; post-emergence activity against DIGSA (DIGSA [39]): 90%; pre-emergence activity against ABUTH (ABUTH [25]; application rate 320 g/ha): 90%; pre-emergence activity against ABUTH (ABUTH [40]): 80%; pre-emergence activity against ECHCG (ECHCG [41]): 100%; pre-emergence activity against AMARE (AMARE [42]): 90% |
